The source made the active and inactive calls. The calls are words filed in the database; no cut-off is given here.
Tests used:
MCF7 [1] = assay: Induction of apoptosis in human MCF7 cells assessed as accumulation at G0/G1 phase at 20 uM after 48 hrs by propidium iodide staining-based flow cytometric analysis (reference value: 67.46%); format: functional
PC-3 [2] = assay: Induction of apoptosis in human PC3 cells assessed as necrotic cells at 5 uM after 48 hrs by annexinV/propidium iodide staining-based FITC analysis relative to control; format: functional
PC-3 [3] = assay: Cytotoxicity against human PC3 cells assessed as cell viability at 10 uM after 24 hrs by MTT assay; format: functional; conditions: PC-3, 24 h, read-out: Activity
MCF7 [4] = assay: Induction of apoptosis in human MCF7 cells assessed as accumulation at G2/M phase at 10 uM after 48 hrs by propidium iodide staining-based flow cytometric analysis (reference value: 9.55%); format: functional
K562 [5] = assay: Induction of apoptosis in human K562 cells assessed as accumulation at G2/M phase at 10 uM after 48 hrs by propidium iodide staining-based flow cytometric analysis (reference value: 15.72%); format: functional
K562 [6] = assay: Induction of apoptosis in human K562 cells assessed as accumulation at G2/M phase at 1 uM after 48 hrs by propidium iodide staining-based flow cytometric analysis (reference value: 15.72%); format: functional
MCF7 [7] = assay: Cytotoxicity against human MCF7 cells after 24 hrs by MTT assay; format: functional, cell-based; conditions: MCF7, 24 h
MCF7 [8] = assay: Induction of apoptosis in human MCF7 cells assessed as accumulation at G0/G1 phase at 10 uM after 48 hrs by propidium iodide staining-based flow cytometric analysis (reference value: 67.46%); format: functional
PC-3 [9] = assay: Increase in Bax protein level in human PC3 cells after 48 hrs by Western blot analysis; format: functional, cell-based
DU-145 [10] = assay: Induction of apoptosis in human DU145 cells assessed as early apoptotic cells at 40 uM after 48 hrs by annexinV/propidium iodide staining-based FITC analysis (reference value: 2.34%); format: functional
PC-3 [11] = assay: Induction of apoptosis in human PC3 cells assessed as cleavage of caspase 9 at 5 to 20 uM after 48 hrs by Western blot analysis; format: functional, cell-based
DU-145 [12] = assay: Induction of apoptosis in human DU145 cells assessed as necrotic cells at 40 uM after 48 hrs by annexinV/propidium iodide staining-based FITC analysis (reference value: 0.35%); format: functional
MCF7 [13] = assay: Induction of apoptosis in human MCF7 cells assessed as late apoptotic cells at 10 uM after 48 hrs by annexinV/propidium iodide staining-based FITC analysis (reference value: 3.57%); format: functional
K562 [14] = assay: Induction of apoptosis in human K562 cells assessed as accumulation at G2/M phase at 5 uM after 48 hrs by propidium iodide staining-based flow cytometric analysis (reference value: 15.72%); format: functional
PC-3 [15] = assay: Cell cycle arrest in human PC3 cells assessed as accumulation at G2/M phase at 10 uM after 48 hrs by propidium iodide staining-based flow cytometric analysis relative to control; format: functional
K562 [16] = assay: Induction of apoptosis in human K562 cells assessed as accumulation at S phase at 5 uM after 48 hrs by propidium iodide staining-based flow cytometric analysis (reference value: 45.67%); format: functional
MCF7 [17] = assay: Induction of apoptosis in human MCF7 cells assessed as early apoptotic cells at 5 uM after 48 hrs by annexinV/propidium iodide staining-based FITC analysis (reference value: 5.48%); format: functional
DU-145 [18] = assay: Induction of apoptosis in human DU145 cells assessed as late apoptotic cells at 10 uM after 48 hrs by annexinV/propidium iodide staining-based FITC analysis (reference value: 2.78%); format: functional
PC-3 [19] = assay: Cell cycle arrest in human PC3 cells assessed as accumulation at G2/M phase after 48 hrs by propidium iodide staining-based flow cytometric analysis; format: functional
PC-3 [20] = assay: Induction of apoptosis in human PC3 cells assessed as early apoptotic cells at 5 uM after 48 hrs by annexinV/propidium iodide staining-based FITC analysis relative to control; format: functional
K562 [21] = assay: Induction of apoptosis in human K562 cells assessed as early apoptotic cells at 10 uM after 48 hrs by annexinV/propidium iodide staining-based FITC analysis (reference value: 2.08%); format: functional
DU-145 [22] = assay: Induction of apoptosis in human DU145 cells assessed as necrotic cells at 20 uM after 48 hrs by annexinV/propidium iodide staining-based FITC analysis (reference value: 0.35%); format: functional
PC-3 [23] = assay: Induction of apoptosis in human PC3 cells assessed as cleavage of caspase 3 at 5 to 20 uM after 48 hrs by Western blot analysis; format: functional, cell-based
DU-145 [24] = assay: Cytotoxicity against human DU145 cells after 24 hrs by MTT assay; format: functional, cell-based; conditions: DU-145, 24 h
DU-145 [25] = assay: Induction of apoptosis in human DU145 cells assessed as accumulation at G2/M phase at 20 uM after 48 hrs by propidium iodide staining-based flow cytometric analysis (reference value: 16.14%); format: functional
MCF7 [26] = assay: Induction of apoptosis in human MCF7 cells assessed as necrotic cells at 20 uM after 48 hrs by annexinV/propidium iodide staining-based FITC analysis (reference value: 8.28%); format: functional
DU-145 [27] = assay: Induction of apoptosis in human DU145 cells assessed as necrotic cells at 10 uM after 48 hrs by annexinV/propidium iodide staining-based FITC analysis (reference value: 0.35%); format: functional
MCF7 [28] = assay: Induction of apoptosis in human MCF7 cells assessed as late apoptotic cells at 5 uM after 48 hrs by annexinV/propidium iodide staining-based FITC analysis (reference value: 3.57%); format: functional
DU-145 [29] = assay: Induction of apoptosis in human DU145 cells assessed as accumulation at S phase at 20 uM after 48 hrs by propidium iodide staining-based flow cytometric analysis (reference value: 11.48%); format: functional
K562 [30] = assay: Induction of apoptosis in human K562 cells assessed as necrotic cells at 5 uM after 48 hrs by annexinV/propidium iodide staining-based FITC analysis (reference value: 1.19%); format: functional
K562 [31] = assay: Induction of apoptosis in human K562 cells assessed as late apoptotic cells at 1 uM after 48 hrs by annexinV/propidium iodide staining-based FITC analysis (reference value: 2.55%); format: functional
PC-3 [32] = assay: Inhibition of cyclin B1 protein expression in human PC3 cells at 20 uM after 48 hrs by Western blot analysis; format: functional, cell-based
DU-145 [33] = assay: Induction of apoptosis in human DU145 cells assessed as accumulation at G2/M phase at 10 uM after 48 hrs by propidium iodide staining-based flow cytometric analysis (reference value: 16.14%); format: functional
K562 [34] = assay: Induction of apoptosis in human K562 cells assessed as late apoptotic cells at 5 uM after 48 hrs by annexinV/propidium iodide staining-based FITC analysis (reference value: 2.55%); format: functional
DU-145 [35] = assay: Induction of apoptosis in human DU145 cells assessed as accumulation at S phase at 40 uM after 48 hrs by propidium iodide staining-based flow cytometric analysis (reference value: 11.48%); format: functional
PC-3 [36] = assay: Cell cycle arrest in human PC3 cells assessed as accumulation at S phase at 5 uM after 48 hrs by propidium iodide staining-based flow cytometric analysis relative to control; format: functional
PC-3 [37] = assay: Inhibition of cyclin A protein expression in human PC3 cells at 20 uM after 48 hrs by Western blot analysis; format: functional, cell-based
K562 [38] = assay: Cytotoxicity against human K562 cells after 24 hrs by MTT assay; format: functional, cell-based; conditions: K562, 24 h

In the case of `CC[C@H](/C=C/[C@@H](C)[C@H]1CC[C@H]2[C@H]3[C@H]([C@H](O)C[C@]12C)[C@@]1(C)CC[C@H](O)CC1=C[C@H]3O)C(C)C`, the Activity (MCF7 [1]) is reported as 55.93%, the Activity (PC-3 [2]) is reported as 1.87% and the viability at 10 µM (PC-3 [3]) is reported as 40%. The Activity (MCF7 [4]) was 10.03%, the Activity (K562 [5]) was 12.11% and the Activity (K562 [6]) was 13.08%. For the same compound, the IC50 (MCF7 [7]) was 9.04 µM, the Activity (MCF7 [8]) was 71.05% and the Activity (PC-3 [9]) was “Dose-dependent effect”. The Activity (DU-145 [10]) was 3.13%, the Activity (PC-3 [11]) was “Active” and the Activity (DU-145 [12]) was 8.01%. It also gave an Activity (MCF7 [13]) of 4.42%, an Activity (K562 [14]) of 13.71% and an Activity (PC-3 [15]) of 24.03%. It also gave an Activity (K562 [16]) of 45.5%, an Activity (MCF7 [17]) of 6.72% and an Activity (DU-145 [18]) of 2.48%. For the same compound, the Activity (PC-3 [19]) was “Dose-dependent effect”, the Activity (PC-3 [20]) was 1.05% and the Activity (K562 [21]) was 6.1%. The Activity (DU-145 [22]) was 2.38%, the Activity (PC-3 [23]) was “Active” and the IC50 (DU-145 [24]) was 16.6 µM. For the same compound, the Activity (DU-145 [25]) was 20.74%, the Activity (MCF7 [26]) was 4.8% and the Activity (DU-145 [27]) was 0.28%. It also gave an Activity (MCF7 [28]) of 3.47%, an Activity (DU-145 [29]) of 11.38% and an Activity (K562 [30]) of 1.59%. The Activity (K562 [31]) was 1.79%, the inhibition (PC-3 [32]) was “Active” and the Activity (DU-145 [33]) was 21.4%. The Activity (K562 [34]) was 1.91%, the Activity (DU-145 [35]) was 17.68% and the Activity (PC-3 [36]) was 26.9%. For the same compound, the inhibition (PC-3 [37]) was “Active” and the IC50 (K562 [38]) was 5.21 µM.

Reference: ChEMBL document CHEMBL2062415, “Steroids from Commiphora mukul display antiproliferative effect against human prostate cancer PC3 cells via induction of apoptosis” (Bioorg Med Chem Lett, 2012)
